Laboratory results reported in US12644143B2, “Method for the determination of antibiotic susceptibility through stimulated Raman metabolic imaging” (priority 2017, dated 2026).

What was measured:
E. faecalis 31970 = type: cell-based
Procedure: (§1) To test the toxicity of glucose-d7 to bacteria, E. faecalis 31970 and 31972 were cultivated in custom-made M9 medium, one with normal glucose for control and the other with glucose-d7. The growth of bacteria was monitored by optical density (OD) measurement at 600 nm for up to 22 hours (FIG. 9). […] FIG. 9A illustrates OD measurement for vancomycin susceptible enterococci cultured in M9 medium with either 2% normal glucose or 2% glucose-d7, whereas FIG. 9B illustrates OD measurement for vancomycin resistant enterococci cultured in M9 medium with either 2% normal glucose or 2% glucose-d7.

E. faecalis 31972 = type: cell-based
Procedure: as §1

## [2H]C(=O)[C@]([2H])(O)[C@@]([2H])(O)[C@]([2H])(O)[C@]([2H])(O)C([2H])([2H])O [glucose-d7]
E. faecalis 31970
  toxicity to bacterial growth: no toxicity
E. faecalis 31972
  toxicity to bacterial growth: no toxicity
